# According to patent US20260297121A1, “MITHRAMYCIN (MTM) 2’ OXIMES” (University of Kentucky Research Foundation, priority 2023, published 2026):
# Read-outs that look alike come from different tables or passages of the source.
# Experiments:
# [1] = tested on: ES7; assay: Cytotoxicity, resazurin fluorescence, ES7; assay type: cell-based; settings: Table 6, 72 hr, EWS cells
# [2] = tested on: SK.ES1; assay: Cytotoxicity, resazurin fluorescence, SK.ES1; assay type: cell-based; settings: Table 6, 72 hr, EWS cells
# [3] = tested on: H460; assay: Cytotoxicity, resazurin fluorescence, H460; assay type: cell-based; settings: read-out: GI50 H460
# [4] = tested on: RH30; assay: Cytotoxicity, 72 hr resazurin assay, RH30 alveolar rhabdomyosarcoma; assay type: cell-based; settings: for GI50: Rh30, alveolar; for AUC RH30: area under concentration-efficacy curve, possible range 0-20000
# Source text: (§1) A fibroblast cell line (HS68 (FIG. 2E)) was used as a non-tumor control. The area under the concentration-efficacy curve (AUC; possible range of 0-20000) was used to estimate an alternate metric to GI50 for cases of shallow efficacy (e.g., the limited effect in HS68 cells).
# [5] = tested on: rhabdomyosarcoma cells; assay: Cytotoxicity, 72 hr resazurin assay, four rhabdomyosarcoma cell lines; assay type: cell-based; settings: JR1, RD, RH30, RH41, read-out: GI50 range in the four cell lines tested
# Source text: as §1
# [6] = log P; assay type: physicochemical; settings: Table 2
# [7] = tested on: ES8; assay: Cytotoxicity, resazurin fluorescence, ES8; assay type: cell-based; settings: Table 6, 72 hr, EWS cells
# [8] = tested on: HepG2; assay: Cytotoxicity, resazurin fluorescence, HepG2; assay type: cell-based; settings: read-out: GI50 HepG2
# [9] = tested on: TC32; assay: Cytotoxicity, resazurin fluorescence, TC32; assay type: cell-based
# Summary of the method: (§2)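 Resazurin fluorescence measured viability after 72 hr of continuous compound exposure. Beforehand, 1000-5000 cells/well had grown 24 hr, and compounds spanned 0.3 nM-10 μM in half-log increments.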
# [10] = tested on: EWS cells; assay: Cytotoxicity, average over Ewing (EWS) cell panel; assay type: cell-based; settings: Table 6; 72 hr; average of EWS cells
# Procedure: (§3) Exemplary compounds of the presently-disclosed subject matter were assessed for cytotoxicity (Table 5) in Ewing sarcoma (TC32) and non-Ewing (PC3 prostate cancer). […] Cells (1000-5000/well) were seeded in 96-well plates and allowed to attach and grow for 24 hr prior to adding compounds in half-log increments from 0.3 nM-10 μM. Cell viability was assessed after 72 hr continuous incubation with compounds using resazurin fluorescence. GI50 values were estimated using GraphPad Prism.
# [11] = tested on: A673; assay: Cytotoxicity, resazurin fluorescence, A673; assay type: cell-based; settings: Table 6, 72 hr, EWS cells
# [12] = tested on: RH41; assay: Cytotoxicity, 72 hr resazurin assay, RH41 alveolar rhabdomyosarcoma; assay type: cell-based; settings: for GI50: Homo sapiens, Rh41, alveolar; for AUC RH41: area under concentration-efficacy curve, possible range 0-20000
# Source text: as §1
# [13] = tested on: A549; assay: Cytotoxicity, resazurin fluorescence, A549; assay type: cell-based; settings: read-out: GI50 A549
# [14] = tested on: 5838; assay: Cytotoxicity, resazurin fluorescence, 5838; assay type: cell-based; settings: Table 6; 72 hr; express EWS-ERG
# [15] = tested on: RDES; assay: Cytotoxicity, resazurin fluorescence, RDES; assay type: cell-based; settings: Table 6, 72 hr, EWS cells
# [16] = tested on: PANC1; assay: Cytotoxicity, resazurin fluorescence, PANC1; assay type: cell-based; settings: read-out: GI50 PANC1
# [17] = tested on: ES3; assay: Cytotoxicity, resazurin fluorescence, ES3; assay type: cell-based; settings: Table 6; 72 hr; EWS cells
# [18] = tested on: RD; assay: Cytotoxicity, 72 hr resazurin assay, RD embryonal rhabdomyosarcoma; assay type: cell-based; settings: for GI50: Homo sapiens, RD, embryonal; for AUC RD: area under concentration-efficacy curve, possible range 0-20000
# Source text: as §1
# [19] = tested on: LNCap; assay: Cytotoxicity, resazurin fluorescence, LNCap; assay type: cell-based; settings: read-out: GI50 LNCap
# [20] = tested on: Hela; assay: Cytotoxicity, resazurin fluorescence, Hela; assay type: cell-based; settings: read-out: GI50 Hela
# [21] = tested on: Non EWS cells; assay: Cytotoxicity, average over non-Ewing cell panel; assay type: cell-based; settings: read-out: GI50 Average, Non EWS cells
# Procedure: as §3
# [22] = tested on: PC3; assay: Cytotoxicity, resazurin fluorescence, PC3; assay type: cell-based
# Summary of the method: as §2
# [23] = tested on: JR1; assay: Cytotoxicity, 72 hr resazurin assay, JR1 embryonal rhabdomyosarcoma; assay type: cell-based; settings: for AUC JR1: area under concentration-efficacy curve, possible range 0-20000; for GI50: embryonal
# Source text: as §1
# [24] = tested on: HS68; assay: Cytotoxicity, 72 hr resazurin assay, HS68 fibroblast; assay type: cell-based; settings: for GI50: Homo sapiens, Hs68, fibroblast, non-tumor control; for AUC HS68: area under concentration-efficacy curve, possible range 0-20000
# Source text: as §1
# [25] = tested on: ES4; assay: Cytotoxicity, resazurin fluorescence, ES4; assay type: cell-based; settings: Table 6; 72 hr; EWS cells
# [26] = tested on: TC32 cells; assay: Potency IC50 in TC32 cells and selectivity; assay type: cell-based; settings: Homo sapiens, TC-32, Table 2, read-out: IC50 TC32
# [27] = tested on: PC3; assay: IC50 in PC3 cells; assay type: cell-based; settings: Homo sapiens, PC-3, read-out: IC50 PC2, Table 2; head prints PC2, text PC3
# [28] = tested on: TC71; assay: Cytotoxicity, resazurin fluorescence, TC71; assay type: cell-based; settings: Table 6, 72 hr, EWS cells
# [29] = tested on: BL1395; assay: Cytotoxicity, resazurin fluorescence, BL1395; assay type: cell-based; settings: read-out: GI50 BL1395
# [30] = tested on: DU145; assay: Cytotoxicity, resazurin fluorescence, DU145; assay type: cell-based; settings: read-out: GI50 DU145
# [31] = cited from earlier work
# [32] = tested on: EWS-FLI1; settings: screen of more than 50,000 natural products and synthetic compounds; cited from earlier work
# [33] = Homo sapiens, TC-32, 72 h, read-out: GI50 TC32, Table 5
# [34] = Table 6, 72 hr, average of non EWS cells
# [35] = Table 6, 72 hr, lymphocyte origin
compound,measurement,setting,value
COC(C(=NOCc1cc2ccccc2[nH]1)C(O)C(C)O)C1Cc2cc3cc(OC4CC(OC5CC(O)C(O)C(C)O5)C(O)C(C)O4)c(C)c(O)c3c(O)c2C(=O)C1OC1CC(OC2CC(OC3CC(C)(O)C(O)C(C)O3)C(O)C(C)O2)C(O)C(C)O1 (stereo not shown) [YL-C09],GI50,"[1]; Homo sapiens, ES7",14.5 nM
same,GI50,"[2]; Homo sapiens, SK-ES1",18 nM
same,GI50,"[3]; Homo sapiens, NCI-H460, Table 6, 72 hr, non EWS cells",21.5 nM
same,GI50,[4],24.3 nM
same,AUC RH30,[4],7400
same,GI50,[5],15 to 25 nM
same,logP,[6],1.9
same,GI50,"[7]; Homo sapiens, ES8",31.5 nM
same,GI50,"[8]; Homo sapiens, HepG2, Table 6, 72 hr, hepatic origin",80.1 nM
same,GI50,[9]; [33],17 nM
same,GI50,[10],21.1 nM
same,GI50,"[11]; Homo sapiens, A673",38.1 nM
same,GI50,[12],24.1 nM
same,AUC RH41,[12],9239
same,GI50,"[13]; Homo sapiens, A549, Table 6, 72 hr, non EWS cells",22.6 nM
same,GI50,[14],27.5 nM
same,GI50,[15]; RD-ES,16.8 nM
same,GI50,"[16]; Homo sapiens, PANC-1, Table 6, 72 hr, non EWS cells",33.4 nM
same,GI50,[17],19.2 nM
same,GI50,[18],20.7 nM
same,AUC RD,[18],8443
same,GI50,"[19]; Homo sapiens, LNCaP, Table 6, 72 hr, non EWS cells",63.3 nM
same,GI50,"[20]; Homo sapiens, HeLa, Table 6, 72 hr, non EWS cells",27.1 nM
same,GI50,[21]; [34],34.5 nM
same,GI50,"[22]; Homo sapiens, PC-3, 72 h, Table 6, non EWS cells, read-out: GI50 PC3",19.3 nM
same,AUC JR1,[23],8554
same,GI50,[23],15 nM
same,GI50,[24],1240 nM
same,AUC HS68,[24],15517
same,GI50,[25],16.6 nM
same,IC50,[26],1.96 nM
same,IC50,[27],5.65 nM
same,GI50,"[28]; Homo sapiens, TC-71",11.5 nM
same,GI50,[29]; [35],24.1 nM
COC(C(=NOCCNC(=O)c1[nH]c2ccc(Cl)cc2c1-c1c(C)noc1C)C(O)C(C)O)C1Cc2cc3cc(OC4CC(OC5CC(O)C(O)C(C)O5)C(O)C(C)O4)c(C)c(O)c3c(O)c2C(=O)C1OC1CC(OC2CC(OC3CC(C)(O)C(O)C(C)O3)C(O)C(C)O2)C(O)C(C)O1 (stereo not shown) [YL-C110],GI50,"[1]; Homo sapiens, ES7",13.6 nM
same,GI50,"[2]; Homo sapiens, SK-ES1",18.8 nM
same,GI50,"[3]; Homo sapiens, NCI-H460, 72 h",33.2 nM
same,GI50,[4],21 nM
same,AUC RH30,[4],7413
same,GI50,[5],15 to 25 nM
same,logP,[6],2.56
same,GI50,"[30]; Homo sapiens, DU-145, 72 h",16.2 nM
same,GI50,"[7]; Homo sapiens, ES8",16.6 nM
same,GI50,"[8]; Homo sapiens, HepG2, 72 h",466 nM
same,GI50,[9]; [33],14 nM
same,GI50,"[9]; Homo sapiens, TC-32, 72 h, read-out: GI50 TC32, Table 6, EWS cells",14.3 nM
same,GI50,[10],17.6 nM
same,GI50,"[11]; Homo sapiens, A673",33.5 nM
same,GI50,[12],24.7 nM
same,AUC RH41,[12],9477
same,GI50,"[13]; Homo sapiens, A549, 72 h",46.7 nM
same,GI50,[14],26.6 nM
same,GI50,[15]; RD-ES,13.3 nM
same,GI50,"[16]; Homo sapiens, PANC-1, 72 h",87.5 nM
same,GI50,[17],18.8 nM
same,GI50,[18],22.4 nM
same,AUC RD,[18],8367
same,GI50,"[19]; Homo sapiens, LNCaP, 72 h",44.3 nM
same,GI50,"[20]; Homo sapiens, HeLa, 72 h",102 nM
same,GI50,[21]; 72 h,96.9 nM
same,GI50,"[22]; Homo sapiens, PC-3, 72 h, read-out: GI50 PC3, Table 5",27 nM
same,GI50,"[22]; Homo sapiens, PC-3, 72 h, read-out: GI50 PC3, Table 6, non EWS cells",26.8 nM
same,AUC JR1,[23],8535
same,GI50,[23],14.9 nM
same,GI50,[24],33.6 nM
same,AUC HS68,[24],16245
same,GI50,[25],10.1 nM
same,IC50,[26],2.18 nM
same,IC50,[27],7.1 nM
same,GI50,"[28]; Homo sapiens, TC-71",10.7 nM
same,GI50,"[29]; Lymphocyte, 72 h",49.4 nM
"mithramycin A [MTM, reference compound]",GI50,[1],10 nM
same,GI50,[2],10.2 nM
same,GI50,"[3]; Table 6, 72 hr, non EWS cells",6.8 nM
same,GI50,"[30]; Table 6, 72 hr, non EWS cells",16.4 nM
same,GI50,[7],17.4 nM
same,GI50,"[8]; Table 6, 72 hr, hepatic origin",28.4 nM
same,GI50,"[9]; Table 5, 72 hr, read-out: GI50 TC32",10 nM
same,GI50,"[9]; Table 6, 72 hr, EWS cells, read-out: GI50 TC32",10.4 nM
same,GI50,[10],10.9 nM
same,GI50,[11],9.1 nM
same,GI50,"[13]; Table 6, 72 hr, non EWS cells",54 nM
same,GI50,[14],11.2 nM
same,GI50,[15],10.6 nM
same,GI50,"[16]; Table 6, 72 hr, non EWS cells",22.3 nM
same,GI50,[17],12.8 nM
same,GI50,"[19]; Table 6, 72 hr, non EWS cells",82.7 nM
same,GI50,"[20]; Table 6, 72 hr, non EWS cells",28.4 nM
same,GI50,[21]; [34],28.9 nM
same,GI50,"[22]; Table 5, 72 hr, read-out: GI50 PC3",11 nM
same,GI50,"[22]; Table 6, 72 hr, non EWS cells, read-out: GI50 PC3",11.3 nM
same,clinical trial outcome,"[31]; NCI clinical study, Ewing sarcoma patients","terminated early, due to toxicities"
same,therapeutic index,"[31]; clinical evaluation, 1960s and 70s",narrow therapeutic index
same,inhibition of EWS-FLI1,[32],top inhibitor
same,GI50,[25],7.3 nM
same,GI50,[28],10.3 nM
same,GI50,[29]; [35],9.9 nM
